Test system: TNF-α production from human whole blood
Assay: Inhibition of TNF-α production from human whole blood (hWBA)
Format: cell-based
Settings: human whole blood diluted 1:1, 1 h pre-incubation, LPS, 3.5 h, TNF-α by ELISA; N/A = Not Active
Procedure: The compounds' ability to inhibit TACE activity can also be determined in human whole blood using the assay conditions described n Example 15 below.
Human whole blood was diluted 1:1 with serum free medium (RPMI, L-glutamine, Pen-Strep, HEPES) and incubated with a test compound in a final volume of 360 μl for 1 h at 37° C. Forty microliters of LPS (10 μg/mL) was then added. Supernatant was collected after 3.5 h incubation and the concentration of TNF-α was determined by ELISA (R&D Systems). The concentration of the test compound which inhibits 50% of the amount of TNF-α from the untreated control was determined.

SMILES	IC50 [nM]
COc1ccc2c(c1)C(=O)N(C[C@@]1(c3cc4ncccc4o3)NC(=O)N(COC(=O)C(C)(C)C)C1=O)C2 [Compound 1]	281
COc1ccc2c(c1)C(=O)N(C[C@@]1(c3cc4cnccc4o3)NC(=O)N(COC(=O)C(C)(C)C)C1=O)C2 [Compound 2]	273
CCN1CCN(c2ccc3oc([C@]4(CN5Cc6ccc(OC)c(F)c6C5=O)NC(=O)N(COC(=O)C(C)(C)C)C4=O)cc3n2)CC1 [Compound 3]	61
COc1ccc2c(c1F)C(=O)N(C[C@@]1(c3cc4nc(N5CCN(C)CC5)ccc4o3)NC(=O)N(COC(=O)C(C)(C)C)C1=O)C2 [Compound 4]	92
COc1ccc2c(c1F)C(=O)N(C[C@@]1(c3cc4nc(N5CCNC(=O)C5)ccc4o3)NC(=O)N(COC(=O)C(C)(C)C)C1=O)C2 [Compound 5]	104
COc1ccc2c(c1F)C(=O)N(C[C@@]1(c3cc4nc(N5CCC5=O)ccc4o3)NC(=O)N(COC(=O)C(C)(C)C)C1=O)C2 [Compound 6]	447
COc1ccc2c(c1F)C(=O)N(C[C@@]1(c3cc4cc5c(cc4o3)C(=O)NCC5)NC(=O)N(COC(=O)C(C)(C)C)C1=O)C2 [Compound 32]	135
COc1ccc2c(c1)C(=O)N(C[C@@]1(c3cc4cnccc4o3)NC(=O)N(COC(=O)C3(C)CCCCC3)C1=O)C2 [Compound 35.2]	35.2
COc1ccc2c(c1F)C(=O)N(C[C@@]1(c3cc4nc(C(N)=O)ccc4o3)NC(=O)N(COC(=O)C(C)(C)C)C1=O)C2 [Compound 35]	79
CCCN1CCN(c2ccc3oc([C@]4(CN5Cc6ccc(OC)c(F)c6C5=O)NC(=O)N(COC(=O)C(C)(C)C)C4=O)cc3n2)CC1 [Compound 40]	258
COc1ccc2c(c1)C(=O)N(C[C@@]1(C#Cc3ccc(-c4ncccc4OC(=O)C(C)(C)C)cc3)NC(=O)N(COC(=O)C(C)(C)C)C1=O)C2 [Compound 42]	794
CCOP(=O)(OCC)OCN1C(=O)N[C@@](CN2Cc3ccc(OC)c(F)c3C2=O)(c2cc3nc(N4CCN(CC)CC4)ccc3o2)C1=O [Compound 73]	255

The remaining lines, values ahead:

IC50 [nM]	SMILES
208	CCOCCOC(=O)OCN1C(=O)N[C@@](CN2Cc3ccc(OC)cc3C2=O)(c2cc3cnccc3o2)C1=O [Compound 63.6]
313	COCCOCC(=O)OCN1C(=O)N[C@@](CN2Cc3ccc(OC)cc3C2=O)(c2cc3cnccc3o2)C1=O [Compound 67.2]
774	COc1ccc2c(c1)C(=O)N(C[C@@]1(c3cc4cnccc4o3)NC(=O)N(C(C)OC(=O)N(C)C)C1=O)C2 (stereo partly shown) [Compound 70]
9920	COc1ccc2c(c1)C(=O)N(C[C@@]1(c3cc4cnccc4o3)NC(=O)N(C(C)OC(=O)N3CCN(C)CC3)C1=O)C2 (stereo partly shown) [Compound 71]
720	COc1ccc2c(c1)C(=O)N(C[C@@]1(c3cc4cnccc4o3)NC(=O)N(COP(=O)(O)O)C1=O)C2 [Compound 74.1]
3150	COc1ccc2c(c1)C(=O)N(C[C@@]1(c3cc4cnccc4o3)NC(=O)N(COP(=O)(OCc3ccccc3)OCc3ccccc3)C1=O)C2 [Compound 74]
2120	COc1ccc2c(c1)C(=O)N(C[C@]1(c3cc4ncccc4o3)C(=O)N(C(C)OC(C)=O)C(=O)N1C(C)=O)C2 (stereo partly shown) [Compound 78]
159	COc1ccc2c(c1F)C(=O)N(C[C@]1(c3cc4nc(C(N)=O)ccc4o3)C(=O)N(COC(=O)C(C)(C)C)C(=O)N1COC(=O)C(C)(C)C)C2 [Compound 81]
381	CCOc1ccc2c(c1F)C(=O)N(C[C@]1(c3cc4nc(N5CCN(CC)CC5)ccc4o3)C(=O)N(COC(=O)C(C)(C)C)C(=O)N1COC(=O)C(C)(C)C)C2 [Compound 85]
3150	CCOCCOC(=O)OCN1C(=O)N(C(=O)OCCOCC)[C@@](CN2Cc3ccc(OC)cc3C2=O)(c2cc3cnccc3o2)C1=O [Compound 89.1]
4890	COc1ccc2c(c1)C(=O)N(C[C@]1(c3cc4cnccc4o3)C(=O)N(COC(=O)OCCN(C)C(=O)OCc3ccccc3)C(=O)N1C(=O)OCCN(C)C(=O)OCc1ccccc1)C2 [Compound 89]

Test system: not listed separately
Assay: Area under the curve determinations of plasma levels in rats (rrAUC)
Format: in vivo
Settings: rapid rat AUC of the drug (parent) in plasma; oral 10 mg/kg, fasted rats, blood 0.5-6 h post-dosing
Procedure: To gain insight into the pharmacokinetic properties of the compounds of formula (I), plasma levels of the compounds in rats were determined according to the protocol described in Korfmacher, W. A,; Cox, K. A.; Ng, K. J.; Veals, J.; Hsieh, Y.; Wainhaus, S.; Broske, L; Prelusky, D.; Nomeir, A.; White, R. E. Rapid Commun. Mass Spectrorn, 2001, 15, 335. Briefly, rats, after an overnight fast, were dosed orally with the test compound at a dose of 10 mg/kg in a 5 mL/kg dose volume. Blood was collected at 0.5, 1, 2, 3, 4, and 6 h post-dosing. Mass spectrometry using high performance liquid chromatography was used to identify and measure the concentrations of the test compounds in the plasma at the various time points. The parent ion of each test compound was used to identify and quantitate the compounds in plasma.

SMILES	PK (rrAUC) parent [µM·h]
COc1ccc2c(c1)C(=O)N(C[C@@]1(c3cc4ncccc4o3)NC(=O)N(COC(=O)C(C)(C)C)C1=O)C2 [Compound 1]	13.101
COc1ccc2c(c1)C(=O)N(C[C@@]1(c3cc4cnccc4o3)NC(=O)N(COC(=O)C(C)(C)C)C1=O)C2 [Compound 2]	13.539
CCN1CCN(c2ccc3oc([C@]4(CN5Cc6ccc(OC)c(F)c6C5=O)NC(=O)N(COC(=O)C(C)(C)C)C4=O)cc3n2)CC1 [Compound 3]	19.953
COc1ccc2c(c1F)C(=O)N(C[C@@]1(c3cc4nc(N5CCN(C)CC5)ccc4o3)NC(=O)N(COC(=O)C(C)(C)C)C1=O)C2 [Compound 4]	8.621
COc1ccc2c(c1F)C(=O)N(C[C@@]1(c3cc4nc(N5CCNC(=O)C5)ccc4o3)NC(=O)N(COC(=O)C(C)(C)C)C1=O)C2 [Compound 5]	0.121
COc1ccc2c(c1F)C(=O)N(C[C@@]1(c3cc4nc(N5CCC5=O)ccc4o3)NC(=O)N(COC(=O)C(C)(C)C)C1=O)C2 [Compound 6]	2.283
COc1ccc2c(c1F)C(=O)N(C[C@@]1(c3cc4cc5c(c(F)c4o3)C(=O)NC5)NC(=O)N(COC(=O)C(C)(C)C)C1=O)C2 [Compound 7]	1.898
COc1ccc2c(c1F)C(=O)N(C[C@@]1(c3cc4c5c(ccc4o3)CNC5=O)NC(=O)N(COC(=O)C(C)(C)C)C1=O)C2 [Compound 8]	2.193
COc1ccc2c(c1)C(=O)N(C[C@@]1(c3cc4nc(N5C[C@@H](O)CC5=O)ccc4o3)NC(=O)N(COC(=O)C(C)(C)C)C1=O)C2 [Compound 23]	60.895
COc1ccc2c(c1F)C(=O)N(C[C@@]1(c3cc4cc([C@@]5(C)NC(=O)NC5=O)c(F)cc4o3)NC(=O)N(COC(=O)C(C)(C)C)C1=O)C2 [Compound 30]	0.335
COc1ccc2c(c1)C(=O)N(C[C@@]1(c3cc4ncccc4o3)NC(=O)N(C)C1=O)C2 [Compound 45]	0.947
CCN1C(=O)N[C@@](CN2Cc3ccc(OC)cc3C2=O)(c2cc3ncccc3o2)C1=O [Compound 46]	0.868
COCCOCCOCCN1C(=O)N[C@@](CN2Cc3ccc(OC)cc3C2=O)(c2cc3ncccc3o2)C1=O [Compound 47]	0.019
COc1ccc2c(c1)C(=O)N(C[C@@]1(c3cc4cnccc4o3)NC(=O)N(Cc3cccnc3)C1=O)C2 [Compound 48.1]	0
COCCOCCOCCN1C(=O)N[C@@](CN2Cc3ccc(OC)cc3C2=O)(c2cc3cnccc3o2)C1=O [Compound 49]	0.088
COc1ccc2c(c1)C(=O)N(C[C@@]1(c3cc4cnccc4o3)NC(=O)N(CCN3CCOCC3)C1=O)C2 [Compound 50]	0
COCN1C(=O)N[C@@](CN2Cc3ccc(OC)cc3C2=O)(c2cc3cnccc3o2)C1=O [Compound 52]	1.072
CCOCN1C(=O)N[C@@](CN2Cc3ccc(OC)cc3C2=O)(c2cc3cnccc3o2)C1=O [Compound 53]	5.183

More lines, now with the values ahead:

PK (rrAUC) parent [µM·h]	SMILES
0.571	CCCCCCCCOCN1C(=O)N[C@@](CN2Cc3ccc(OC)cc3C2=O)(c2cc3cnccc3o2)C1=O [Compound 54]
0	COCN1C(=O)N[C@@](CN2Cc3ccc(OC)c(F)c3C2=O)(c2cc3cc4c(c(F)c3o2)C(=O)NC4)C1=O [Compound 56]
2.244	COc1ccc2c(c1F)C(=O)N(C[C@@]1(c3cc4cc5c(c(F)c4o3)C(=O)NC5)NC(=O)N(COCc3ccccc3)C1=O)C2 [Compound 57]
0	CCOC(=O)CN1C(=O)N[C@@](CN2Cc3ccc(OC)cc3C2=O)(c2cc3cnccc3o2)C1=O [Compound 58.2]
2.125	COCN1C(=O)N[C@@](CN2Cc3ccc(OC)cc3C2=O)(c2cc3ncccc3o2)C1=O [Compound 58]
0	COc1ccc2c(c1)C(=O)N(C[C@@]1(c3cc4cnccc4o3)NC(=O)N(C(C)OC(=O)OC3COCOC3)C1=O)C2 (stereo partly shown) [Compound 60.1]
0	CCOC(=O)N(C)CCOC(=O)OCN1C(=O)N[C@@](CN2Cc3ccc(OC)cc3C2=O)(c2cc3cnccc3o2)C1=O [Compound 63.5]
0	COc1ccc2c(c1)C(=O)N(C[C@@]1(c3cc4cnccc4o3)NC(=O)N(COC(=O)OC(C)(C)C)C1=O)C2 [Compound 63]
1.861	COc1ccc2c(c1)C(=O)N(C[C@@]1(c3cc4cnccc4o3)NC(=O)N(COC(=O)c3ccccc3)C1=O)C2 [Compound 66]
13.539	COc1ccc2c(c1)C(=O)N(C[C@@]1(c3cc4cnccc4o3)NC(=O)N(COC(=O)N(C)C)C1=O)C2 [Compound 69]
0.189	COc1ccc2c(c1F)C(=O)N(C[C@@]1(c3cc4cc5c(c(F)c4o3)C(=O)NC5)NC(=O)N(C3OC(=O)c4ccccc43)C1=O)C2 (stereo partly shown) [Compound 75]
0	COc1ccc2c(c1)C(=O)N(C[C@@]1(c3cc4cnccc4o3)NC(=O)N(C(=O)OC3COCOC3)C1=O)C2 [Compound 77]
3.092	COc1ccc2c(c1)C(=O)N(C[C@]1(c3cc4ncccc4o3)C(=O)N(COC(=O)C(C)(C)C)C(=O)N1COC(=O)C(C)(C)C)C2 [Compound 80]
0.783	CCCC(=O)OCN1C(=O)N(C(=O)CCC)[C@@](CN2Cc3ccc(OC)cc3C2=O)(c2cc3cnccc3o2)C1=O [Compound 82]
0.126	COc1ccc2c(c1)C(=O)N(C[C@]1(c3cc4cnccc4o3)C(=O)N(COC(=O)c3ccccc3)C(=O)N1C(=O)c1ccccc1)C2 [Compound 84]
0	COc1ccc2c(c1)C(=O)N(C[C@]1(c3cc4cnccc4o3)C(=O)N(COC(=O)C3CCCCC3)C(=O)N1C(=O)C1CCCCC1)C2 [Compound 87]
0	COc1ccc2c(c1)C(=O)N(C[C@]1(c3cc4cnccc4o3)C(=O)N(C(C)OC(=O)OC3COCOC3)C(=O)N1C(=O)OC1COCOC1)C2 (stereo partly shown) [Compound 88]

Reference: patent US8859529B2, “Compounds for the treatment of inflammatory disorders” (Merck Sharp & Dohme Corp., priority 2008, dated 2014)
